TGI and GI50 data for 32 compounds are collected here from PubChem BioAssay (NCI).

SMILES strings stand for the structures.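 Growth conditions: 96-well plates. Treatment: test compound, 48 hours, 5 concentrations. Analysis: linear interpolation between bracketing concentrations; unreached endpoints set to highest concentration. The concentration for 50% growth inhibition is given as GI50. TGI denotes the concentration required for complete inhibition of growth.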 A value given as a limit tells only on which side of the number the result lay.

For one assay, the system named is HOP-92 NSCLC. Put plainly: growth of human tumour cells (NCI), 48 h.
The compound `c1ccc(SC2CCSc3ccccc3C2Sc2ccccc2)cc1` (stereo unspecified) returned a TGI of more than 100 µM.
Still for that read-out and setting: then `COC(=O)[C@]1(C)CCCC2(C)C1CC[C@H]1C=C(C)[C@H]3CCC12C3` (stereo partly specified), with more than 100 µM.
The same measure, in the same setting: then `COC1C(O)=C2C(=O)O/C(C)=C/C=C/C=C/C=C\CC(c3ccccc3)NC(=O)\C=C/C=C\C=C\C=C\[C@@]2(C)[C@@H]1O` (stereo partly specified), with less than 0.0199 µM; and `Cc1c(Cl)cccc1N1C(=O)C(Cl)=C(Cl)C1=O`, with more than 100 µM; and `COc1ccc(NC(=O)/C(N=O)=C(/C)O)cc1`, with more than 100 µM.
Consider `COc1cccc(/C=N/[N-]C(=O)c2ccncc2)c1[O-].[Cu+2].[OH3+]`, for which the GI50 is more than 100 µM and the TGI was more than 100 µM.
`O=C1NC(=S)NNC12c1ccccc1-c1ccccc12`: the TGI was more than 10 µM.
On the same count and under the same terms, with `O=C(NC(=O)c1cn(CCNCCO)c(=O)[nH]c1=O)OCc1ccccc1` the figure was more than 100 µM; with `O=[N+]([O-])c1ccc(-n2nnc(C3=NCCN3)c2-c2ccc(Cl)cc2)cc1`, more than 100 µM.
The same measure, in the same setting: then `CCSc1[nH]c(Nc2nc(-c3ccccc3)n(-c3ccccc3)n2)c(C(N)=O)c1C(N)=O`, with more than 10 µM; and `O=C(c1ccc(Cl)cc1)c1cnc(Nc2ccccc2Cl)s1`, with 49.5 µM.
On the same count and under the same terms, then `CCOC(=O)C1(c2ccccc2)CCC(=O)CC1`, with more than 100 µM; and `O=C(N/N=C1/C(=O)N(c2ccc(Cl)cc2Cl)C(=O)C(=O)C1c1nc2ccccc2o1)c1ccccc1O` (stereo unspecified), with 93.5 µM; and `CC(=O)O[C@H]1CCC2[C@@H]3CCC4=C(O)c5nocc5C[C@]4(C)C3CC[C@@]21C` (stereo partly specified), with more than 100 µM.
`CCCCCCC[CH2][Sn]1([CH2]CCCCCCC)[O]C(=O)c2cccnc2[S]1`: the GI50 is more than 100 µM and the TGI was more than 100 µM.
Turning to `O=C1[C@@H]2C3c4ccccc4C([C@@H]2C(=O)N1c1ccccc1)S3(=O)=O`, the TGI was more than 100 µM.
The same measure, in the same setting: then `COc1ccc(/C(=N\NC(=O)C(N)=O)C(c2ccc(OC)cc2)C2(O)C(=O)Nc3c(Cl)cccc32)cc1` (stereo unspecified), with more than 100 µM; and `CCc1cccc(C)c1NC(=O)C(=O)Cc1nc2ccccc2o1`, with more than 100 µM.
The same measure, in the same setting: then `O=C(O)[C@H](NS(=O)(=O)c1ccc2ccccc2c1)c1ccccc1`, with more than 100 µM; and `CCOc1ccc2c(c1)[n+]([O-])c(-c1ccccc1Cl)c(N)[n+]2[O-]`, with more than 100 µM; and `O=C1c2ccccc2C2(O)c3cc4ccccc4cc3OC12O` (stereo unspecified), with 80.4 µM.
Take `CN(C)c1c([O-])c(=[N+](C)C)c1=O`: the TGI is more than 100 µM.

The test system of the next assay is K-562 leukemia. Nature of the assay: growth of human tumour cells (NCI), 48 h.
`c1ccc(SC2CCSc3ccccc3C2Sc2ccccc2)cc1` (stereo unspecified) showed a TGI of more than 100 µM.
On the same count and under the same terms, with `COC(=O)[C@]1(C)CCCC2(C)C1CC[C@H]1C=C(C)[C@H]3CCC12C3` (stereo partly specified) the figure was more than 100 µM; with `O=C(Nc1cc(Cl)ccc1Cl)c1cc2cccc(Cl)c2oc1=O`, more than 100 µM; with `O=c1n(-c2ccccc2)c(=O)n2n1C1C=CC2C2C(C1)C2(Cl)Cl` (stereo unspecified), more than 100 µM.
Compound `COC1C(O)=C2C(=O)O/C(C)=C/C=C/C=C/C=C\CC(c3ccccc3)NC(=O)\C=C/C=C\C=C\C=C\[C@@]2(C)[C@@H]1O` (stereo partly specified) gave a TGI of 0.158 µM.
The same measure, in the same setting: with `Cc1ccc(Cn2c(C)nc3c2C(=O)c2ccccc2C3=O)cc1` the figure was more than 100 µM; with `CCOC(=O)C(C)(C)Oc1ccc2c(C)c(-c3ccc(Cl)cc3)c(=O)oc2c1`, more than 100 µM; with `Cc1c(Cl)cccc1N1C(=O)C(Cl)=C(Cl)C1=O`, more than 31.6 µM.
Still for that read-out and setting: then `COc1ccc(NC(=O)/C(N=O)=C(/C)O)cc1`, with more than 100 µM.
As for `COc1cccc(/C=N/[N-]C(=O)c2ccncc2)c1[O-].[Cu+2].[OH3+]`, the GI50 is 33.6 µM and the TGI was more than 100 µM.
Regarding `O=C1NC(=S)NNC12c1ccccc1-c1ccccc12`, the TGI was more than 10 µM.
The same measure, in the same setting: then `CCc1c(OC(C)=O)c2c(NC3OC(COC(C)=O)C(OC(C)=O)C(OC(C)=O)C3OC(C)=O)nc(OC)nc2oc1=O` (stereo unspecified), with more than 100 µM.
On the same count and under the same terms, then `O=C(NC(=O)c1cn(CCNCCO)c(=O)[nH]c1=O)OCc1ccccc1`, with more than 100 µM.
Still for that read-out and setting: then `O=[N+]([O-])c1ccc(-n2nnc(C3=NCCN3)c2-c2ccc(Cl)cc2)cc1`, with more than 100 µM; and `CCSc1[nH]c(Nc2nc(-c3ccccc3)n(-c3ccccc3)n2)c(C(N)=O)c1C(N)=O`, with more than 10 µM.
`O=C(c1ccc(Cl)cc1)c1cnc(Nc2ccccc2Cl)s1` returned a TGI of more than 100 µM.
For the compound `CCC1C2C=CC(CC2)N1S(=O)(=O)c1ccc(C)cc1` (stereo unspecified), the TGI is more than 100 µM.
Still for that read-out and setting: with `CCOc1ccc(N2C(=O)/C(=C/c3ccc(N(CCC#N)CCC#N)cc3)N=C2c2cc([N+](=O)[O-])ccc2Cl)cc1` the figure was 81.2 µM; with `COc1ccc(-c2cc(-c3ccccc3)c(C#N)c(=O)n2C2OC(CO)C(O)C(O)C2O)cc1` (stereo unspecified), more than 100 µM; with `CCOC(=O)C1(c2ccccc2)CCC(=O)CC1`, more than 100 µM.
Compound `O=C(N/N=C1/C(=O)N(c2ccc(Cl)cc2Cl)C(=O)C(=O)C1c1nc2ccccc2o1)c1ccccc1O` (stereo unspecified) gave a TGI of more than 100 µM.
On the same count and under the same terms, then `CC(=O)O[C@H]1CCC2[C@@H]3CCC4=C(O)c5nocc5C[C@]4(C)C3CC[C@@]21C` (stereo partly specified), with more than 100 µM; and `O=C(O)CSc1n[nH]c(-c2ccccc2)n1`, with more than 100 µM.
With `CCCCCCC[CH2][Sn]1([CH2]CCCCCCC)[O]C(=O)c2cccnc2[S]1`, the GI50 was more than 100 µM and the TGI was more than 100 µM.
As to `O=C1[C@@H]2C3c4ccccc4C([C@@H]2C(=O)N1c1ccccc1)S3(=O)=O`, the TGI was more than 100 µM.
`Cc1ccc(S(=O)(=O)N/N=C/c2oc(-c3ccncc3)c(-c3ccncc3)c2[N+](=O)[O-])cc1` displayed a TGI of more than 100 µM.
On the same count and under the same terms, then `CCc1cccc(C)c1NC(=O)C(=O)Cc1nc2ccccc2o1`, with more than 100 µM; and `O=C(O)[C@H](NS(=O)(=O)c1ccc2ccccc2c1)c1ccccc1`, with more than 100 µM; and `CCOc1ccc2c(c1)[n+]([O-])c(-c1ccccc1Cl)c(N)[n+]2[O-]`, with more than 100 µM.
Same read-out and setting: then `O=C1c2ccccc2C2(O)c3cc4ccccc4cc3OC12O` (stereo unspecified), with more than 100 µM; and `CN(C)c1c([O-])c(=[N+](C)C)c1=O`, with more than 100 µM.

The test system of a further assay is MALME-3M melanoma. Nature of the assay: growth of human tumour cells (NCI), 48 h.
The compound `COC(=O)[C@]1(C)CCCC2(C)C1CC[C@H]1C=C(C)[C@H]3CCC12C3` (stereo partly specified) yielded a TGI of more than 100 µM.
Same read-out and setting: with `O=C(Nc1cc(Cl)ccc1Cl)c1cc2cccc(Cl)c2oc1=O` the figure was more than 100 µM; with `O=c1n(-c2ccccc2)c(=O)n2n1C1C=CC2C2C(C1)C2(Cl)Cl` (stereo unspecified), more than 100 µM.
The same measure, in the same setting: then `COC1C(O)=C2C(=O)O/C(C)=C/C=C/C=C/C=C\CC(c3ccccc3)NC(=O)\C=C/C=C\C=C\C=C\[C@@]2(C)[C@@H]1O` (stereo partly specified), with 0.329 µM.
